In US7326540B2, “Methods for identifying compounds that modulate stabilization of secretase-associated proteins” (priority 2003, dated 2008):

What was measured:
[1] = tested on: γ-secretase complex proteins; experiment: γ-secretase complex protein levels by Western blot in CHO cell lines; assay type: cell-based, Chinese Hamster
Method: (§1) Chinese Hamster Ovary (CHO) cells expressing APP751 and BACE (CAB), CHO cells expressing full-length APP and wild-type PS1 (CHO-APP751/PS1) or expressing C99 and wild-type PS1 (CHO-CC99/PS1), H4 human neuroglioma cells expressing APP751 (H4-APP751), mouse embryonic fibroblast (MEF), embryonic stem (ES) cells, and human epithelial A431 cells were grown as described previously (Marambaud, P. et al., Embo J 21, 1948-56 (2002); Cai, H. et al., Nat Neurosci 4, 233-4 (2001); Sato, N. et al., Nat Cell Biol 2, 863-70 (2000); Puglielli, L., Ellis, B. C., Saunders, A. J. & Kovacs, D. M., J Biol Chem 278, 19777-83 (2003); Wolfe, M. S. et al., Nature 398, 513-7 (1999)). For the induction of apoptosis, we used staurosporine or etoposide (Calbiochem (EMD Biosciences, San Diego, Calif.)). For Aβ measurements, cells were seeded at the density of 0.5×10^6 cells per well in 6 well plates. After 48 hours, cells were treated with either STS (1 μM) for 6 hours. In order to inhibit caspase activation a sister plate of cells was pre-treated with zVAD ([…], Enzyme Systems Products) for 1 hour before STS treatment. For time-course experiments, cells were seeded at the density of 2×10^6 cells per 100 mm dish and treated with STS (1 μM) or etoposide (100 μg/mL). At different time points (0, 3, 6, 9, 12 and 24 hours), the cells were scraped, centrifuged and then lysed in buffer containing 1% NP40. […]

[2] = tested on: γ-secretase complex proteins; experiment: γ-secretase complex protein levels by Western blot in A431 cells; assay type: cell-based, human; details: after 6 hours of STS treatment
Method: as §1

## CN[C@@H]1C[C@H]2O[C@@](C)([C@@H]1OC)n1c3ccccc3c3c4c(c5c6ccccc6n2c5c31)C(=O)NC4 [STS, staurosporine]
[1]; STS treatment, CHO cells overexpressing APP751 and PS1WT and mouse fibroblasts
  nicastrin and Pen2 protein levels: up-regulated
[1]; six hours after STS treatment, CAB cells
  endogenous nicastrin protein levels: increase
[2]
  immature nicastrin levels increase: ~1.5 fold
  protein levels of PS1, Pen-2 and Aph1a: unchanged
